# Source: patent US10238670B2, “9-aminomethyl minocycline compounds and methods of use thereof in urinary tract infection (UTI) treatment” (Paratek Pharmaceuticals, Inc., priority 2016, dated 2019)
# Read-outs that look alike come from different tables or passages of the source.
# What was measured:
# [1] = test system: E. coli (ATCC 25922); conditions: Macone 2014; cited from earlier work
# [2] = cited from earlier work
# [3] = test system: E. coli (ATCC 25922) biofilm; assay: MBEC assay, planktonic adhesion to 6, 12, 24 hour biofilms under sub-MIC treatment; assay type: cell-based, Escherichia coli
# Description: The MBEC™ assay (formerly the Calgary biofilm device; Innovotech Inc., Canada) is a well-established high throughput assay for assessment of anti-biofilm activity of test agents in a 96-well format. Within this assay, the biofilm is formed on the plastic pegs of the plate lid. After inoculated media is introduced to the wells of the 96-well plate, the plate is placed in a shaking incubator to generate the necessary shear force for biofilm growth on the pegs. Following a suitable incubation time, the individual biofilms can be treated with varying concentrations of test agents (challenge plate). After the desired treatment time, the remaining biofilm-associated bacteria are retrieved from the pegs through sonication (recovery plate). Serial dilution and/or plating of the recovered bacterial suspension allow for the quantification of test agents' efficacy against pre-formed biofilms. Additionally, readout of the challenge plate from the biofilm treatment can be used to determine MIC values of test agents. The absence of growth in the recovery plate indicates complete biofilm eradication and the lowest concentration of a test agent that achieves this is designated as the minimum biofilm eradication concentration (MBEC). […]
# [4] = In vitro activity at pH 6.0 in media; assay type: cell-based
# [5] = test system: E. coli (ATCC 25922); assay: Broth microdilution MIC against planktonic E. coli; assay type: cell-based; conditions: Escherichia coli, ATCC25922, extrapolated from OD650 plot after 24 hours, read-out: minimum inhibitory concentration (MIC)
# Description: Antimicrobial activity of Compound 1 against E. coli (ATCC 25922) was determined using a standard broth microdilution method (CLSI in Methods for Dilution Antimicrobial Susceptibility Tests for Bacteria That Grow Aerobically, Approved Standard M7-A8, Clinical and Laboratory Standards Institute, Wayne, Pa. (USA), 2011, incorporated herein by reference) with slight modifications.
# [6] = test system: human transporters and cytochrome P-450; conditions: cited from earlier work
# [7] = test system: Enterobacter spp; assay: In vitro MIC, 2010 surveillance isolates; assay type: cell-based
# [8] = test system: S. saprophyticus; assay: In vitro MIC90 against common uncomplicated UTI pathogens; assay type: cell-based; conditions: Staphylococcus saprophyticus
# Description: The minimum inhibitory concentrations for at least 90% of the isolates (MIC90) tested for Compound 1 against these common pathogens are 1 μg/mL for S. saprophyticus, 2 μg/mL for ESBL-negative E. coli, and 4 μg/mL for ESBL-producing E. coli.
# [9] = test system: plasma proteins; assay: In vitro plasma protein binding (ultrafiltration), monkey plasma; assay type: in vitro ADME, monkey (Cynomolgus); conditions: 10-10,000 ng/mL
# Description: (§1) For human binding studies, plasma was obtained from the blood of three healthy male volunteers. Plasma was defrosted from storage at -20° C. before use, and pools of human plasma were used for all studies. Plasma from mouse, rat, and monkey was supplied by Harlan Laboratories Ltd. (Netherlands), Milan […], Switzerland) and Centre de Primatologie ULP (France), respectively. Protein binding was measured using an ultrafiltration method. To asses the suitability of ultrafiltration, the recovery and free permeation of [^14C]-labelled Compound 1 in PBS buffer were investigated. […] Three 1 mL aliquots per concentration were introduced into […]® devices and spun for 1 min at 2000 g (filtrate ≤500 μL). Samples of the spiked solutions, the filtrate and retentate were quantified by LSC; volumes were determined by weighing. The free permeation of the test compound in PBS was evaluated as follows: Ratio=[Cuf/Cr] with Cuf being the concentration in the ultrafiltrate (ng/mL) and Cr the concentration in the retentate (ng/mL). […] Specifically, concentrations of Compound 1 was determined by an UPLC-MS/MS method. […] Standards and quality control samples were prepared on the day of analysis by adding a 20 μL aliquot of an appropriate standard or QC spiking solution in methanol. A 25 μL aliquot of the internal standard (at 200 ng/mL in methanol) was added to each well except blanks. […] Samples were processed using protein precipitation. A 0.5 mL aliquot of an acetonitrile/ethanol/acetic acid mixture (90:10:0.1, v:v:v) was added to each sample; samples were mixed using a vortex mixer for 10 minutes, and centrifuged 3800 rpm (approximately 2500×g) for 10 min at 10° C. […] The ions monitored for Compound 1 was the parent [M+H]^+ ion at m/z 557.3.0; the product ions at m/z 453.4. […] The quantification was performed using Analyst software and Watson LIMS version 7.2.0.01. Concentrations in QC and study samples were calculated from the resulting peak area ratios and interpolation from the regression equations of the respective calibration curves. The lower limit of quantitation was 5.0 ng/mL for Compound 1.
# [10] = as above; assay type: in vitro ADME, monkey (Cynomolgus); conditions: 10-10,000 ng/mL, mean±SD, read-out: mean unbound protein fraction (fu) in plasma
# Description: as §1
smiles,measurement,setting,value
"CN(C)c1cc(CNCC(C)(C)C)c(O)c2c1C[C@H]1C[C@H]3[C@H](N(C)C)C(O)=C(C(N)=O)C(=O)[C@@]3(O)C(O)=C1C2=O [Compound 1, 9-[(2,2-dimethyl-propylamino)-methyl]-minocycline]",reported MIC against E. coli,[1],0.5 to 2 µg/mL
same,peak plasma concentration,[2]; 100 mg IV dose,1.8 mg/L
same,peak plasma concentration,[2]; 300 mg oral dose,0.6 mg/L
same,elimination half-life,[2]; phase 1 studies,approximately 17 hours
same,reduction in total biofilm-associated bacteria relative to controls,"[3]; 24 hour biofilms, 4% of the MIC (0.046 μg/mL), planktonic bacteria present",reduced by about a log
same,adhesion of planktonic bacteria to biofilms,"[3]; sub-MIC concentrations, 6, 12, 24 hour biofilms",do not promote additional adhesion of planktonic bacteria
same,in vitro activity at pH 6.0 in media,[4],somewhat decreased
same,MIC,[5],1.13 µg/mL
same,potential for drug-drug interactions,[6],low potential for drug-drug interactions
same,MIC90,"[7]; Asia/Pac, N=52",16 µg/mL
same,MIC90,"[7]; Europe, N=82",4 µg/mL
same,MIC90,"[7]; L. Amer, N=42",4 µg/mL
same,MIC90,"[7]; N America, N=101",4 µg/mL
same,MIC90,[8],1 µg/mL
same,Mean (SD) Bound Fraction,[9],21.2 (7.26) %
same,mean unbound protein fraction (fu) in plasma,[9]; mean±SD,78.8±7.3%
same,fraction unbound,[10],0.788 ± 0.0726
CN(C)c1cc(NC(=O)CNC(C)(C)C)c(O)c2c1C[C@H]1C[C@H]3[C@H](N(C)C)C(O)=C(C(N)=O)C(=O)[C@@]3(O)C(O)=C1C2=O [Tigecycline],% R (resistance),"[7]; Asia/Pac, Eucast breakpoints",3.8%
same,MIC90,"[7]; Asia/Pac, N=52",1 µg/mL
same,% R (resistance),"[7]; Europe, Eucast breakpoints",1.2%
same,MIC90,"[7]; Europe, N=82",1 µg/mL
same,% R (resistance),"[7]; L. Amer, CLSI breakpoints",0%
same,MIC90,"[7]; L. Amer, N=42",0.5 µg/mL
same,% R (resistance),"[7]; N America, CLSI breakpoints",0%
same,MIC90,"[7]; N America, N=101",0.5 µg/mL
